In patent US20140255432A1, “SILVESTROL, SILVESTROL ANALOGS AND USES THEREOF” (priority 2011, published 2014):

Legend:
Format in all cases: cell-based, human
[1] = tested on: interleukin-6; test: Real-time RT-PCR for NF-κB targets in LCL; settings: 10 nM in LCL (FIG. 45)
Source text: FIG. 41 presents data regarding NK cytotoxicity of K562 cells. […] FIG. 42 presents data regarding the cytotoxicity of LCLs pretreated with BZLF 1. […] BZLF1 antigen pulsed LCLs promoted enhanced killing in untreated and silvestrol-treated CTLs. FIG. 43 presents data relating to CD4 IFNgamma release with LCL pretreated with BZLF1. […] FIG. 44 presents data relating to CD4 IFNgamma release with LCL pretreated with BZLF 1. […] FIG. 45 presents data relating to interleukin-6 induction by silvestrol. […] FIG. 46 presents data relating to a change in LMP-1 expression following silvestrol treatment. […] Three cell lines were examined on days 1, 3, and 5 following treatment. FIG. 47 presents data relating to a change in EBNA1 expression following silvestrol treatment. Three cell lines were examined on days 1, 3, and 5 following treatment.

[2] = tested on: CD3-/CD19+ LCL and immune effector subsets; test: Non-irradiated LCL / autologous PBMC co-cultures, flow cytometry
Protocol: Lymphoblastoid cell lines (LCL) were derived in vivo by engrafting severe combined immune-deficient (SCID) mice (Taconic, Hudson N.Y.) with human peripheral blood mononuclear cells (PBMC) from a healthy EBV-positive donor as described (Rowe 1991; Baiocchi 1994). Co-cultures (Cocx) were created by mixing 5×10^4 LCL (either non-irradiated or irradiated with 14000 rad) per well with equal numbers of autologous PBMC in 96-well plates. Cultures were grown in the presence of 10 U/mL IL-2 and were given a single dose of silvestrol and cultured for 10-14 days.
Cells from irradiated or non-irradiated co-cultures were co-stained with LIVE/DEAD cell stain (Invitrogen, Grand Island, N.Y.) and hu-CD3-APC and either hu-CD4-PE, hu-CD-8-PE, hu-CD19-PE (BD Biosciences, San Diego, Calif.), or hu-CD56-PE (Beckman Coulter, Brea, Calif.). Live events were gathered by gating on cells negative for the LIVE/DEAD stain on an FC500 cytometer (Beckman Coulter). Cell viability was also measured by flow cytometry at 24, 72, and 120 hr using annexin-V-FITC and propidium iodide (PI) according to the manufacturer's instructions (BD Biosciences).
It was next examined how viable, non-irradiated LCL interacted with immune effectors in the presence of silvestrol, a situation closer to conditions that occur in vivo. CoCx were incubated in the presence of 10 U/mL IL-2. Specifically, LCL from three separate donors were incubated at a ratio of 1:1 with their respective autologous PBMCs for 10 days after adding a single dose of 0, 2, 5, or 10 nM silvestrol. On day 10, flow cytometric analysis was conducted. Live events were gathered by gating on cells negative for the LIVE/DEAD stain. Data are expressed as percentage of total viable population for (A) CD3^−/CD19^+ LCLs; (B) CD3^+/C4^+ helper T cells; (C) CD3^+/CD8^+ CTLs; or (D) CD3^−/CD56^+ NK cells. Left untreated, the transformed LCL (CD3^−/CD19^+) cells proliferated and matched the expansion of effectors lymphocyte subsets, approximately maintaining the 1:1 ratio (FIGS. 34A and 34E). […] Similarly, CD4^+ T cell percentages were reduced with increasing silvestrol concentrations (FIG. 34B). In contrast, CD8+ T cells and CD56^+ NK cell populations expanded in the presence of silvestrol, both as percent of population and absolute numbers (FIGS. 34C-34D).

[3] = tested on: autologous LCL targets; test: Flow cytometry-based cytotoxicity assay (CFSE/7-AAD), effectors against autologous LCL
Protocol: Non-radioactive flow cytometry-based cytotoxicity assays have been described previously (Godoy-Ramirez 2005; Helguera 2011). Co-cultures of PBMC and irradiated LCL were grown in the presence or absence of silvestrol for 14 d and collected. Fresh autologous LCL cells were stained with 200 nM carboxyfluorescein diacetate succinimidyl ester (CFSE) (CellTrace™, Invitrogen) for 15 min at 25° C. prior to being mixed with effectors from the irradiated co-cultures at an effector:target (E:T) ratio of 20:1 for 4 hr at 37° C. After the incubation, cells were stained with 7-aminoactinomycin D (7AAD) (BD Biosciences, San Diego, Calif.) and washed. Cytotoxicity was measured by gating on the CFSE-positive events and measuring the 7AAD-positive cells. (See FIGS. 31 and 32). For antibody-dependent cell-mediated cytotoxicity (ADCC) assays the same technique was used; however, the co-cultured effectors were natural killer (NK) cell-enriched and were incubated in the presence or absence of 5 μg/mL rituximab or herceptin (negative control) (Genentech, Inc., South San Francisco, Calif.) for 4 hr at 37° C.
Immune cell function was then analyzed as part of the indirect anti-tumor activity of silvestrol. Cytotoxicity assays were performed. To investigate the effect of silvestrol on adaptive immunity, LCL cells were stained with the cell-tracking dye CFSE, then incubated at an effector to target ratio of 20:1 with autologous PBMC that had been cultured in the presence of irradiated LCL, with or without silvestrol, for 14 days. After a 4 hr incubation, cells were stained with the viability dye 7-AAD and washed. Cytotoxic activity against LCL targets was measured by gating on the CFSE positive events and measuring the 7-AAD positive cells (FIGS. 31-32). […] Data are shown relative to the vehicle-only control and are the averages of three independent experiments. Bars show −/+ standard deviation.
Given that LCL cells were depleted and effector cell cytotoxicity was maintained in non-irradiated co-cultures, whether silvestrol lowers the apoptotic threshold of the LCL tumor target was examined. PBMC were co-cultured with irradiated LCL in the absence of silvestrol for 14 days. These expanded effectors and fresh LCL each were separately incubated with silvestrol or vehicle control for 18 hr and washed. Cells were then combined, and after 4 hr incubation, cytotoxicity assays were performed as above. […] Data are shown relative to the vehicle-only control and are the averages of three independent experiments. Bars show −/+ standard deviation.

[4] = single dose 2, 5, 10 nM, day 10, non-irradiated LCL

COC(=O)[C@H]1[C@@H](O)[C@@]2(O)c3c(OC)cc(O[C@@H]4O[C@@H]([C@H](O)CO)CO[C@H]4OC)cc3O[C@@]2(c2ccc(OC)cc2)[C@@H]1c1ccccc1 [silvestrol]
interleukin-6 expression [1]: induced | CD19+ B cells in non-irradiated co-cultures ([2]; 2, 5, 10 nM, 14 days of culture (FIG. 16)): dose dependent loss | CD4+ T cell percentages [2, 4]: reduced | CD8+ T cell population (percent and absolute numbers) [2, 4]: expanded | CD56+ NK cell population (percent and absolute numbers) [2, 4]: expanded | viable EBV-LCL (CD3-/CD19+) [2, 4]: dose-dependent ablation | direct killing of autologous EBV+ LCLs by EBV-specific CTLs ([3]; 10 nM (FIG. 42)): not adversely affected | cytotoxic activity against autologous LCL maintained, compared to effectors expanded without silvestrol ([3]; effectors expanded 14 days with 10 nM, E:T 20:1, 4 hr): over 70% | ability of silvestrol-treated effectors to kill targets vs. untreated effectors ([3]; effectors incubated 18 hr with silvestrol, p=0.287): no decrease | cytotoxic activity of effector populations against autologous EBV+ tumor cells ([3]; expanded 14 days in 2, 5, 10 nM, 3 donors (FIG. 17)): did not affect cytotoxic activity | killing of LCL target cells pretreated with silvestrol vs. untreated targets ([3]; targets pretreated 18 hr, p<0.0001): more efficiently killed
